Assay results reported in US9937179B2, “Combined treatment for cancer resistant to an epidermal growth factor receptor kinase inhibitor” (Pre Clinical Oncology Services Ltd., priority 2014, dated 2018).
Entries after “also recorded” stand apart in the source; their conditions may differ.

Tests used:
[1] = tested on: HCC827 subcutaneous xenograft; conditions: s.c. HCC827 tumours, n=5/group, Erlotinib 25 mg/kg po QD
Experimental: (§1) Tumour measurements and body weights were taken 3 times weekly and treatment initiated when the tumours reached a mean volume of ˜200 mm^3 (n=5 per group).
(§2) Mice were anaesthetised and transported to the SARRP where CBCT (cone beam computed tomography) images were acquired. Using the MuriSlice software the isocenter of the tumour was identified and aligned with the central axis of the beam. […] A tolerability was performed initially to evaluate 3 Gy/day×5 days for 2 week.

[2] = tested on: HCC827-ER1 subcutaneous xenograft; conditions: s.c. HCC827-ER1 tumors, n=5/group
Experimental: as §1, §2

| Structure (SMILES) | effect on tumor volume, drug alone [1] | tumor growth inhibition compared with vehicle/control ([2]; drug alone, p<0.001, Erlotinib 25 mg/kg po QD) [%] | tumor regression, drug combined with irradiation [2] | tumor regression, drug alone ([2]; drug alone) |
| --- | --- | --- | --- | --- |
| C[C@@H](Oc1cc(-c2cnn(C3CCNCC3)c2)cnc1N)c1c(Cl)ccc(F)c1Cl [Crizotinib, 3-[(1R)-1-(2,6-dichloro-3-fluorophenyl)ethoxy]-5-(1-piperidin-4-ylpyrazol-4-yl)pyridin-2-amine] | no effect | ~60 | tumour regression was restored; also recorded: tumor regression was restored |  |
| C#Cc1cccc(Nc2ncnc3cc(OCCOC)c(OCCOC)cc23)c1 [Erlotinib, N-(3-ethynylphenyl)-6,7-bis(2-methoxyethoxy) quinazolin-4-amine] |  |  | tumour regression was restored; also recorded: tumor regression was restored | no tumour regression; also recorded: no tumor regression |
